Our source for the TGI values is PubChem BioAssay (NCI).

Assay in all cases: growth of human tumour cells (NCI), 48 h
Test [1] concerns ACHN renal.
Test [2] concerns DU-145 prostate.
Test [3] concerns HCC-2998 colon.
Test [4] deals with HCT-15 colon.
The subject of test [5] is HT29 colon.
The subject of test [6] is M14 melanoma.
Test [7] relates to NCI-H226 lung.
Test [8] deals with NCI-H522 lung.
For test [9], the system named is NCI/ADR-RES ovarian.
For test [10], the system named is OVCAR-8 ovarian.
Test [11] relates to SF-268 CNS.
Test [12] concerns SK-MEL-2 melanoma.
For test [13], the system named is SK-MEL-28 melanoma.
Test [14] concerns SNB-75 CNS.
Test [15] deals with TK-10 renal.

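Method: 48-hour compound exposure of cells in 96-well plates, five concentrations, linear interpolation of endpoints. Definition used: TGI = concentration required for complete inhibition of growth.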 Bounds are passed on as bounds.

For `CC(=O)OCC1OC(n2c(C)c(C(C)=O)c(-c3cccc4ccccc34)c(C#N)c2=S)C(OC(C)=O)C(OC(C)=O)C1OC(C)=O` (stereo not given), the TGI in test [1], in [2], in [3], in test [4], in test [5] and in test [6] was more than 100 µM each time. In addition, the TGI in test [7], in [8], in test [9], in test [10], in test [11] and in test [12] was more than 100 µM in each case. For the same compound, the TGI in test [13], in test [14] and in test [15] was more than 100 µM each time.
For `COc1cc(C2c3cc4c(cc3OC(NCc3ccccc3)C2C)OCO4)cc(OC)c1OC` (stereo not given), the TGI in test [1] is more than 39.8 µM; in test [2], more than 100 µM; in [3] it was 4 µM; in [4], more than 44.4 µM; in [5] it was 3.32 µM; in test [6] it was 67.1 µM. In addition, the TGI in test [7] is 7.33 µM; in test [8] it was 4.02 µM; in [9], 0.723 µM; in [10], more than 100 µM; in test [11], more than 36.8 µM; in [12], more than 66.6 µM. The TGI in test [13] and in test [15] was more than 100 µM throughout.
Take `Clc1ccccc1-c1nnc2c(-c3ccccc3)nc3ccccc3n12`: the TGI in test [1], in [2], in test [3], in test [4], in test [5] and in test [6] was more than 100 µM in each case. In addition, the TGI in test [7], in test [9], in test [11], in [12], in test [13] and in test [15] was more than 100 µM each time.
In the case of `Cc1ccc(S(=O)(=O)c2c3[nH]c4ccccc4nc3n3c2nc2ccccc23)cc1`, the TGI in [1], in [3], in [4], in [6], in test [8] and in [10] was more than 100 µM throughout. Besides, the TGI in [11], in test [12], in test [13], in test [14] and in [15] was more than 100 µM throughout.
As to `Nc1ccccc1OCc1cc(=O)c(OCc2ccccc2)co1`, the TGI in test [1], in test [2], in test [4], in test [5], in test [6] and in test [9] was more than 100 µM each time. Also, the TGI in [10] is more than 100 µM; in [11], more than 100 µM; in [13], more than 100 µM; in test [15], 61.2 µM.
For the compound `CN(C)CCNC(=O)c1cc(-c2nccn2C)nc2ccccc12`, the TGI in test [1], in [2], in [3], in test [4], in test [5] and in test [6] was more than 100 µM in each case. The TGI in test [7], in [8], in [9], in [10], in test [11] and in test [12] was more than 100 µM each time. In addition, the TGI in test [14] and in test [15] was more than 100 µM each time.
For `C=CCCCCCC(O)C(O)C/C=C\C/C=C\CC` (stereo not given), the TGI in test [1], in test [3], in test [4], in [5], in test [6] and in [7] was more than 18.8 µM in each case. The TGI in test [8], in test [10], in test [11], in test [12], in [13] and in test [14] was more than 18.8 µM in each case. The TGI in test [15] was more than 18.8 µM.
As to `O=C1c2c(nc3ccccc3c2-c2ccccc2)CN1Nc1ccccc1`, the TGI in [3], in test [5], in [6], in test [7], in test [8] and in [10] was more than 100 µM throughout. Further, the TGI in test [11], in [12] and in test [15] was more than 100 µM in each case.
Turning to `O=S1c2ccccc2SCSc2ccccc21`, the TGI in test [1], in [2], in [3], in test [4], in [5] and in test [6] was more than 100 µM each time. Moreover, the TGI in test [8], in [9], in [10], in test [11], in test [12] and in test [15] was more than 100 µM each time.
On to `N#CC(NNC(=O)c1ccccc1O)c1ccccc1` (stereo not given), for which the TGI in test [1] was more than 100 µM; in test [4] it was more than 100 µM; in [5] it was more than 100 µM; in [6], more than 100 µM; in test [7] it was 76.6 µM; in test [8], 52.2 µM. Besides, the TGI in [10], in test [11], in test [12], in [13], in test [14] and in [15] was more than 100 µM throughout.
For the compound `COc1ccc(CCc2ccccc2CC(=O)O)cc1`, the TGI in [1], in test [3], in test [4], in test [5], in [6] and in test [7] was more than 100 µM each time. Also, the TGI in test [8], in test [10], in [11], in [12], in test [13] and in test [14] was more than 100 µM each time. Further, the TGI in [15] was more than 100 µM.
With `CN(C)/C=C/c1ccncc1`, the TGI in [1], in test [2], in test [3], in test [4], in test [5] and in test [6] was more than 100 µM in each case. In addition, the TGI in test [7], in [8], in test [9], in [10], in test [11] and in test [12] was more than 100 µM in each case. Moreover, the TGI in [13] and in test [15] was more than 100 µM in each case.
`CC1=NN(C(=O)c2ccc(Cl)cc2)C(=O)/C1=C/c1ccc(O)cc1`: the TGI in [1], in [3], in test [4], in test [5], in test [6] and in [7] was more than 100 µM in each case. The TGI in [8], in test [10], in test [11], in [12], in test [13] and in test [15] was more than 100 µM each time.
On to `N#CN1CCC=C(c2cc3ccccc3[nH]2)C1`, for which the TGI was more than 448 µM in test [1]; more than 448 µM in test [3]; more than 448 µM in test [4]; more than 448 µM in [5]; more than 448 µM in [7]; 298 µM in [8]. The TGI in [10], in [11], in [12], in test [13] and in test [15] was more than 448 µM in each case.
As for `CC(C)(C)[Si](C)(C)OCC#C[C@@]1(O)CCCCC1CC(Sc1ccccc1)Sc1ccccc1` (stereo not given in full), the TGI in [1] came out at 27.4 µM; in test [2], 29.8 µM; in test [3], 30.7 µM; in test [4] it was 34.5 µM; in [5] it was 27 µM; in test [6] it was 35.5 µM. The TGI in test [7] came out at 34.8 µM; in test [8], 26.8 µM; in test [9] it was 39 µM; in test [10], 35.1 µM; in [12], 31.7 µM; in [13], 31.3 µM. The TGI turned out to be 28.7 µM in [14] and 31.8 µM in [15].
Regarding `Cc1cc(C)c(NS(=O)c2cccc(Cl)c2)c(C)c1` (stereo not given), the TGI in test [1], in test [2], in [4], in test [5], in [6] and in test [7] was more than 100 µM in each case. Moreover, the TGI in [9], in test [10], in test [11], in test [13] and in [15] was more than 100 µM each time.
In the case of `COC1=CC(=O)[C@]2(C)[C@H](C1=O)C(C)[C@H]2c1ccccc1` (stereo not given in full), the TGI in test [1], in test [3], in test [4], in [5], in [6] and in [7] was more than 100 µM in each case. Also, the TGI in [8], in test [10], in test [11], in test [12], in test [13] and in [14] was more than 100 µM each time. In test [15], this compound yielded a TGI of more than 100 µM.
